Experimental data as given in patent publication US7169942B2, “Cannabinoid derivatives, methods of making, and use thereof” (priority 2003, dated 2007).
pKi: −log10 of the molar value. Like-named read-outs stand apart in the source and are kept apart here.

Experiments:
human CB2 receptor = molecular target: T1, human CB2 receptor (Homo sapiens, UniProt P34972); assay: CB2 receptor binding assay, displacement of [3H]CP 55,940
T1 construct: purchased Perkin-Elmer Life Sciences, Inc. Lot #1930

human CB1 receptor = molecular target: T2, human CB1 receptor (Homo sapiens, UniProt P21554); assay: biochemical; type: binding
T2 construct: purchased Perkin-Elmer Life Sciences, Inc. Lot #1929; host or cells: HEK293 (HEK293 EBNA according to b236 for compounds 33-36)

[1] = tested on: rat hemorrhagic shock model; assay: Rat hemorrhagic shock model; settings: FIG. 22
CB1 = CB1 (Rattus norvegicus, UniProt P20272); settings: literature value, highly potent CB1 analogs; read-out: Ki of reference cannabinoid; cited from earlier work
C6 glioma cells = assay: Cytotoxicity on C6 glioma cells (MTS, CellTiter 96); settings: concentrations of 8 μM
[2] = Table 3, human receptor in HEK293 EBNA cell membranes, three experiments in duplicate, SEM in parentheses
[3] = Table 1, affinity ratio of Ki values
[4] = Table 1, membranes of HEK293 cells with human CB1, SEM in parentheses, n≧2 in triplicate, read-out: CB1 Ki
[5] = Table 3, human receptor in HEK293 EBNA cell membranes, three experiments in duplicate, SEM in parentheses, read-out: CB2 Ki
[6] = Table 3, human receptor in HEK293 EBNA cell membranes, three experiments in duplicate, SEM in parentheses, read-out: CB1 Ki
[7] = Table 8, SEM in parentheses, n≧2 in triplicate
[8] = Table 8, SEM in parentheses, n≧2 in triplicate, read-out: CB1 Ki

T1 sequence (P34972 whole entry): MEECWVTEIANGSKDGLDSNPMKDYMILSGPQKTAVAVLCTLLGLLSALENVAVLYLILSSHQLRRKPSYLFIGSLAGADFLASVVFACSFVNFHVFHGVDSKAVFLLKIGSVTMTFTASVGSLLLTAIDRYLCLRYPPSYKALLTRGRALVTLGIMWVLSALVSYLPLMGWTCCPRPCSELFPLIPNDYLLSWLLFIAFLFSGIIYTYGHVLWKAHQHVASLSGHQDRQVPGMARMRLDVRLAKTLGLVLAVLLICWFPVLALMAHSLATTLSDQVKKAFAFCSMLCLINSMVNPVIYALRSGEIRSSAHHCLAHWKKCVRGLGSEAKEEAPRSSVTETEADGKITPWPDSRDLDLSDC
T2 sequence (P21554 whole entry): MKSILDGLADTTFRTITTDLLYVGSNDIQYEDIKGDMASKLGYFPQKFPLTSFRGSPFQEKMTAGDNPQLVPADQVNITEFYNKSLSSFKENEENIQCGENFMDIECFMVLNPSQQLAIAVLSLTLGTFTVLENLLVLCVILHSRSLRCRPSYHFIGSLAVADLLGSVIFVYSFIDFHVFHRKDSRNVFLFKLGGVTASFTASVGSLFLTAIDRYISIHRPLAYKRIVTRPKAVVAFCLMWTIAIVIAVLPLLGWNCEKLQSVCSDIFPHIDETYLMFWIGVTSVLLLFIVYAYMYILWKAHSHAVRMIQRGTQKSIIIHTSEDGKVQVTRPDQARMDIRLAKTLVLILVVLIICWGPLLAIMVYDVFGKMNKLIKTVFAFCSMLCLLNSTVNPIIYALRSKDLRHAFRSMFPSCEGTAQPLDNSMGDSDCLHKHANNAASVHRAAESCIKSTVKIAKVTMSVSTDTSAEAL
Chain of CB1 (P20272 whole entry): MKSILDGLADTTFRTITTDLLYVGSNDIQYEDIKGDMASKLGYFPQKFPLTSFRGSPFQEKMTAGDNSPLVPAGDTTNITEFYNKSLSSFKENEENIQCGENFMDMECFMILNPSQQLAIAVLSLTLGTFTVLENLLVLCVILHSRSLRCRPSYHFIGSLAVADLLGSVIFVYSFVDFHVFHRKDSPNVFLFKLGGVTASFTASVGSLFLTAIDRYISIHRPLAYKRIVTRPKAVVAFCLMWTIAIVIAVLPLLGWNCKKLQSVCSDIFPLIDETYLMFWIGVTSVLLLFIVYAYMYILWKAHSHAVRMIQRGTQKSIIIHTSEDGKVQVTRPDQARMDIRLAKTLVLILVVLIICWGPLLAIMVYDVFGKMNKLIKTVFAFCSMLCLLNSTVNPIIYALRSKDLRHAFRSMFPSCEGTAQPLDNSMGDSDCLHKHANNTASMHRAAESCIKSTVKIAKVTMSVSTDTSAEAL

CCCCC(=O)c1cc(OC)cc(OC)c1 [Compound 5, 1-(3,5-Dimethoxy-phenyl)-pentan-1-one]
CB2 Ki (human CB2 receptor; [2]): significantly reduced binding affinities | CB1 Ki (human CB1 receptor; [2]): significantly reduced binding affinities

CCCCC1(c2cc(O)c3c(c2)OC(C)(C)C2CC=C(C)CC32)SCCS1 (centres unmarked) [Compound 23, 3-(2-Butyl-[1,3]dithiolan-2-yl)-6,6,9-trimethyl-6a,7,10,10a-tetrahydro-6H-benzo[c]chromen-1-ol]
pKi (human CB2 receptor): 9.24 | fold increase in binding to the CB2 receptor relative to Δ8-THC (human CB2 receptor): 47 fold | fold increased affinity for the CB2 receptor relative to the carbon equivalent 24 (human CB2 receptor): 11 fold | CB2 Ki (human CB2 receptor; Table 1, membranes of CHO-K1 cells with human CB2, SEM in parentheses, n≧2 in triplicate): sub-nanomolar | fold increase in binding to the CB1 receptor relative to Δ8-THC (human CB1 receptor): 33 fold | fold increased affinity for the CB1 receptor relative to the carbon equivalent 24 (human CB1 receptor): 4.7 fold | Ratio CB1/CB2 (human CB1 receptor; [3]): 1.47 | CB1 Ki (human CB1 receptor; Table 1, membranes of HEK293 cells with human CB1, SEM in parentheses, n≧2 in triplicate): sub-nanomolar | pKi (human CB1 receptor; [4]): 9.07

CC1=CCC2C(C1)c1c(O)cc(C3(C4CCCC4)SCCS3)cc1OC2(C)C (centres unmarked) [Compound 24, 3-(2-Cyclopentyl-[1,3]dithiolan-2-yl)-6,6,9-trimethyl-6a,7,10,10a-tetrahydro-6H-benzo[c]chromen-1-ol]
pKi (human CB2 receptor): 8.56 | fold decrease in affinity at the CB2 receptor (dithiolane ring) (human CB2 receptor): 7 fold | Ratio CB1/CB2 (human CB1 receptor; [3]): 3.46 | pKi (human CB1 receptor; [4]): 8.02

CC1=CCC2C(C1)c1c(O)cc(C3(C4CCCCC4)SCCS3)cc1OC2(C)C (centres unmarked) [Compound 25, 3-(2-Cyclohexyl-[1,3]dithiolan-2-yl)-6,6,9-trimethyl-6a,7,10,10a-tetrahydro-6H-benzo[c]chromen-1-ol]
pKi (human CB2 receptor): 8.98 | Ratio CB1/CB2 (human CB1 receptor): 1.77 | pKi (human CB1 receptor; [4]): 8.73 | change in mean blood pressure versus time relative to positive control Δ8-THC and NS-398 ([1]; 12 mg/kg in combination with NS-398 2 mg/kg): improved behavior relative to the positive control

CC1=CCC2C(C1)c1c(O)cc(C3(C4CCCCCC4)SCCS3)cc1OC2(C)C (centres unmarked) [Compound 26, 3-(2-Cycloheptyl-[1,3]dithiolan-2-yl)-6,6,9-trimethyl-6a,7,10,10a-tetrahydro-6H-benzo[c] chromen-1-ol]
pKi (human CB2 receptor): 8.18 | fold decrease in affinity at the CB2 receptor (dithiolane ring) (human CB2 receptor): 33 fold | Ratio CB1/CB2 (human CB1 receptor; [3]): 0.27 | pKi (human CB1 receptor; [4]): 8.75

CC1=CCC2C(C1)c1c(O)cc(C(C)(C)C3CCCC3)cc1OC2(C)C (centres unmarked) [Compound 27, 3-(1-Cyclopentyl-1-methyl-ethyl)-6,6,9-trimethyl-6a,7,10,1a-tetrahydro-6H-benzo[c]chromen-1-ol]
pKi (human CB2 receptor; Table 1, membranes of CHO-K1 cells with human CB2, SEM in parentheses, n≧2 in triplicate, read-out: CB2 Ki): 9.41 | Ratio CB1/CB2 (human CB1 receptor; [3]): 0.84 | pKi (human CB1 receptor; read-out: CB1 Ki): 9.47

CC1=CCC2C(C1)c1c(O)cc(C(C)(C)C3CCCCC3)cc1OC2(C)C (centres unmarked) [Compound 28, 3-(1-Cyclohexyl-1-methyl-ethyl)-6,6,9-trimethyl-6a,7,10,10a-tetrahydro-6H-benzo[c]chromen-1-ol]
pKi (human CB2 receptor): 9.19 | Ratio CB1/CB2 (human CB1 receptor; [3]): 0.87 | pKi (human CB1 receptor; [4]): 9.24 | Ratio CB1/CB2 (human CB1 receptor; Table 3, ratio of Ki values): 0.87 | Ratio CB1/CB2 (human CB1 receptor; Table 3, ratio of Ki values, listed as 32): binds both the subtypes with almost equal affinity | rapid increase in ΔMAP, level reached relative to basal MAP ([1]; 12 mg/kg with 2 mg/kg NS-398 (COX-2 inhibitor)): ≤ 85%

CC1=CCC2C(C1)c1c(O)cc(C(C)(C)C3CCCCCC3)cc1OC2(C)C (centres unmarked) [Compound 29, 3-(1-Cycloheptyl-1-methyl-ethyl)-6,6,9-trimethyl-6a,7,10,10a-tetrahydro-6H-benzo[c]chromen-1-ol]
pKi (human CB2 receptor): 9.66 | pKi (human CB1 receptor; [4]): 9.03

CC1=CCC2C(C1)c1c(O)cc(C3(c4ccccc4)SCCS3)cc1OC2(C)C (centres unmarked) [Compound 34, dithiolanyl-phenyl-Δ^8-THC]
pKi (human CB2 receptor; [5]): 7.75 | fold decrease in affinity relative to the 1′-cyclohexyl congener (human CB1 receptor): 10 fold | pKi (human CB1 receptor; [6]): 7.76

CC1=CCC2C(C1)c1c(O)cc(Cc3ccccc3)cc1OC2(C)C (centres unmarked) [Compound 35, methylene-phenyl-Δ^8-THC]
pKi (human CB2 receptor; [5]): 7.07 | pKi (human CB1 receptor; [6]): 7.17 | Ratio CB1/CB2 (human CB1 receptor; Table 3, ratio of Ki values): 0.78

CC1=CC[C@@H]2[C@@H](C1)c1c(O)cc(C(=O)c3ccccc3)cc1OC2(C)C [Compound 36, methanone-phenyl-Δ^8-THC]
pKi (human CB2 receptor; [5]): 7.63 | Ratio CB1/CB2 (human CB1 receptor): 12.6 | fold decrease in binding affinity for the CB1 receptor compared to Δ8-THC (human CB1 receptor): ~10 fold | pKi (human CB1 receptor; [6]): 6.53

CC1=CCC2C(C1)c1c(O)cc(C(C)(C)c3ccc(C)cc3)cc1OC2(C)C (centres unmarked) [Compound 50, 6,6,9-Trimethyl-3-(1-methyl-1-p-tolyl-ethyl)-6a,7,10,10a-tetrahydro-6H-benzo[c]chromen-1-ol]
pKi (human CB2 receptor): 9.06 | CB2 Ki (human CB2 receptor; [7]): sub-nanomolar | pKi (human CB1 receptor; [8]): 8.67 | Ratio CB1/CB2 (human CB1 receptor; Table 8, ratio of Ki values): 3.56

CC1=CCC2C(C1)c1c(O)cc(C(C)(C)c3cccc(C)c3)cc1OC2(C)C (centres unmarked) [Compound 51, 6,6,9-Trimethyl-3-(1-methyl-1-m-tolyl-ethyl)-6a,7,10,10a-tetrahydro-6H-benzo[c]chromen-1-ol]
pKi (human CB2 receptor): 8.95 | pKi (human CB1 receptor; [8]): 8.60 | Ratio CB1/CB2 (human CB1 receptor; Table 8, ratio of Ki values): 2.24

CC1=CCC2C(C1)c1c(O)cc(C(C)(C)c3ccc(Cl)cc3)cc1OC2(C)C (centres unmarked) [Compound 52, 3-[1-(4-Chloro-phenyl)-1-methyl-ethyl]-6,6,9-trimethyl-6a,7,10,10a-tetrahydro-6H-benzo[c]chromen-1-ol]
pKi (human CB2 receptor): 7.91 | pKi (human CB1 receptor; [8]): 7.12

CC1=CCC2C(C1)c1c(O)cc(C(C)(C)c3cccc(Cl)c3)cc1OC2(C)C (centres unmarked) [Compound 53, 3-[1-(3-Chloro-phenyl)-1-methyl-ethyl]-6,6,9-trimethyl-6a,7,10,10a-tetrahydro-6H-benzo[c]chromen-1-ol]
pKi (human CB2 receptor): 8.77 | pKi (human CB1 receptor; [8]): 7.73

CC1=CCC2C(C1)c1c(O)cc(C(C)(C)c3ccc(F)cc3)cc1OC2(C)C (centres unmarked) [Compound 54, 3-[1-(4-Fluoro-phenyl)-1-methyl-ethyl]-6,6,9-trimethyl-6a,7,10,10a-tetrahydro-6H-benzo[c]chromen-1-ol]
pKi (human CB2 receptor): 8.45 | CB2 Ki (human CB2 receptor; [7]): did show enhanced affinity for the CB-2 receptor | Ratio CB1/CB2 (human CB1 receptor): 0.79 | pKi (human CB1 receptor; [8]): 8.55

CC1=CCC2C(C1)c1c(O)cc(C(C)(C)c3cccs3)cc1OC2(C)C (centres unmarked) [Compound 55, 6,6,9-Trimethyl-3-(1-methyl-1-thiophen-2-yl-ethyl)-6a,7,10,10a-tetrahydro-6H-benzo[c]chromen-1-ol]
pKi (human CB2 receptor): 9.57 | CB2 Ki (human CB2 receptor; [7]): sub-nanomolar | pKi (human CB1 receptor): 8.97 | Ratio CB1/CB2 (human CB1 receptor): 4.00

CCCCCCC(C)(C)c1cc(O)c2c(c1)OC(C)(C)C1CC=C(C)CC21 (centres unmarked) [DMHT, 1′,1′-dimethylheptyl-Δ^8-THC]
pKi (CB1): 9.11

CCCCCCC1(c2cc(O)c3c(c2)OC(C)(C)C2CC=C(C)CC32)SCCS1 (centres unmarked) [DTHT, 1′,1′-dithiolaneheptyl-Δ^8-THC]
pKi (CB1): 9.49

gem-dimethyl-phenyl-Δ^8-THC [Compound 33]
fold selectivity for the CB2 receptor (human CB2 receptor; CB2 over CB1): 13 fold | pKi (human CB2 receptor; [5]): 9.04 | pKi (human CB2 receptor; Table 8, SEM in parentheses, n≧2 in triplicate, read-out: CB2 Ki): 9.04 | time to complete cell death (C6 glioma cells): ≤ 5 h | Ratio CB1/CB2 (human CB1 receptor): 13.5 | pKi (human CB1 receptor; read-out: CB1 Ki): 7.91
